Entries after “also recorded” stand apart in the source; their conditions may differ. Non-standard residues stand in square brackets, D forms with d. Residues, ends and D or L forms follow the SMILES beside them. *: point of attachment. Biotin = O=C1N[C@H]2[C@H](CS[C@H]2CCCCC(=O)*)N1; Benzoyl(4-SO2F) = O=C(c1ccc(S(=O)(=O)F)cc1)*; pY = N[C@@H](Cc1ccc(OP(=O)(O)O)cc1)C(=O)O; Dap = NC[C@H](N)C(=O)O
What was measured:
[1] = target: T1, Nck (Homo sapiens, UniProt P16333); assay: Crosslinking of peptides with recombinant Nck in vitro (SDS-PAGE, Western blotting); type: binding; settings: PBS, 1 h
T1 construct: GST (followed by PreScission/HRV 3C site) (N, cleaved yes); made in house; host or cells: E. coli BL21(DE3)
Text: Although peptide Y474 can block Nck-mediated LLPS, the requirement of a high concentration of the blocker peptide is hard to achieve inside the cell. […] The side chains of the Nck lysine residues are pointing toward the residues at pY+1 and pY+2 positions with distances of only 4 to 6 Å. This unique feature gives us an opportunity to design covalent blockers for Nck-SH2 by installing electrophiles at the pY+1 or pY+2 positions to enable a proximal conjugation reaction with one of the lysine residues. Covalent blockage through the characteristic lysine residues will maximize the specificity of the inhibitor toward Nck-SH2. As sulfonyl fluoride has been reported to react with proteinaceous nucleophiles such as lysine, histidine, or cysteine,[34] we installed a sulfonyl fluoride group on the side chain of diaminopropionic acid, giving an unnatural amino acid X1 at different positions such as pY+1 (Asp6) and pY+3 (Val8) of peptide EEHIpYDEVAAD. Besides the amino acid X1, we also included α-chloroacetyl-carrying amino acids X2 and X3, which may also react with proteineous nucleophiles. Electrophile-containing reactive peptides p1 to p11 were synthesized with a biotin tag at the N-termini (Figure 4b). After the reactive peptides were incubated with recombinant Nck protein at a 5:1 ratio at 37 °C in PBS for 1 h, the formation of covalently linked Nck–peptide conjugates could be observed, shown as new protein bands with molecular weights higher than that of Nck based on denatured SDS-PAGE and Western blotting analysis against biotin (Figure 4c). […] At 37 °C in PBS buffer, the 1:1 reaction efficiency reached 50% in 2 min (Figure S4 in the Supporting Information).
Figure 4 Covalently reactive peptides designed based on a Tir peptide. (a) Crystal structure of Nck-SH2 in complex with a peptide EEHIpYDEVAAD from EPEC protein Tir (PDB: 2CI9). (b) List of synthetic reactive peptides. (c) Unnatural amino acids in the peptides. (d) SDS-PAGE (top) and Western blotting (bottom) analyses showing covalent conjugation of the peptides with Nck. […]

[2] = target: T1, Nck; assay: Reaction kinetics of p1 crosslinking with Nck (SDS-PAGE); type: binding; settings: 1:1 reaction, p1 5 μM, Nck 5 μM, PBS, 37 °C
Method: ether and purified by reverse-phase HPLC on a C18 column using acetonitrile/H2O (with 0.1% TFA) gradient on a reversed-phase C18 column, confirmed by MALDI-TOF MS analysis (Bruker, USA).
Pure peptides were lyophilized.
Crosslinking of Peptides with Nck in vitro […]
After incubation, 5´ loading buffer was added into the solution and heated at 100 °C for 10 min. These samples were then separated by 12% SDS-PAGE gel, which contained 10% glycerol instead of DI water, followed by staining with Coomassie brilliant blue. Western blot was then performed using the primary antibody specific for Nck or biotin and the secondary antibody.
Mass Spectrometric Analysis
The reaction mixture of Nck and p1 were digested with trypsin. Digested peptides were analyzed with an in-line EASY-spray source and nano-LC UltiMate 3000 high-performance liquid chromatography system (Thermo Fisher, USA) interfaced with an Elite mass spectrometer (Thermo Fisher, USA). The eluted peptides were detected by the Elite mass spectrometer, which was operated in data-dependent mode with one full MS scan at R = 60,000 (m/z = 200) mass, followed by MS/MS scans. Mass spectrometry raw data was searched by Maxquant.
Protein–Peptide Conjugation Reactions and the Binding Assay
The reaction solutions were then thermally denatured in the presence of loading dye to stop the reactions. […]

[3] = tested on: EPEC infection of Caco-2 cells; assay: EPEC infection assay of Caco-2 cells (CFU counts); type: cell-based, enteropathogenic Escherichia coli; settings: L17E 40 μM
Method: Lastly, to examine whether pretreatment of Caco-2 cells with L17E/p1 could prevent EPEC infection, we first established a bacterial infection assay (Figure 7a). Caco-2 cells were pretreated with L17E/p1 for 2 h. After excess peptides were removed, Caco-2 cells were then infected with EPEC at different multiplicity of infection (MOI) values (MOI is commonly defined as the ratio of infectious bacteria to cells in a culture) for 3 h, and extra bacterial cells were removed from the culture. Next, gentamicin was added to the cell culture to remove EPEC that are merely attached to the surface of Caco-2 cells, leaving only engulfed EPEC inside Caco2 cells to be counted (gentamicin treatment will not kill intracellular bacteria due to its cellular impermeability). After gentamicin was washed away, cells were lysed to release EPEC cells inside, and the cell lysates were diluted to count the number of EPEC cells as colony-forming units (cfu) on agar plates.
Caco-2 cells were seeded in a 24-well plate at a density of 1×10^4 cells for 24 h and pretreated with peptide complexes for 2 h. After washing with DMEM, cells were infected with EPEC at selected MOI values for 3 h at 37 ℃. Cells were then treated with gentamicin ([…]) for 2 h and lysed with 1% […]
Triton X-100 for 15 min. […]
The sample was loaded onto 12% SDS/PAGE glycerol gel and then transferred onto a PVDF membrane using Bio-Rad […]. The membrane was blocked and incubated with a rabbit anti-Nck antibody (Abcam, Hong Kong) at 4 °C overnight, followed by a n anti -rabbit HRP -labeled secondary antibody (Abcam, Hong Kong).
SPSS 23.0 statistical software was used to process experimental data. The differences between mean ± SEM of three independent experiments were assessed by Student's t -test.

Q: Which results are given for CC[C@H](C)[C@H](NC(=O)[C@H](Cc1c[nH]cn1)NC(=O)[C@H](CCC(=O)O)NC(=O)[C@H](CCC(=O)O)NC(=O)CCCC[C@@H]1SC[C@@H]2NC(=O)N[C@@H]21)C(=O)N[C@@H](Cc1ccc(OP(=O)(O)O)cc1)C(=O)N[C@@H](CNC(=O)c1ccc(S(=O)(=O)F)cc1)C(=O)N[C@@H](CCC(=O)O)C(=O)N[C@H](C(=O)N[C@@H](C)C(=O)N[C@@H](C)C(=O)N[C@@H](CC(=O)O)C(N)=O)C(C)C [p1] (Biotin-EEHI[pY][Dap](Benzoyl(4-SO2F))EVAAD-NH2; N-terminus and C-terminus assumed)?
A: number of Nck–peptide conjugate bands ([1]; p1:Nck 5:1, 37 °C, SDS-PAGE): only one Nck–peptide conjugate band; reactivity with Nck ([1]; peptide:Nck 5:1, 37 °C, SDS-PAGE and anti-biotin Western blotting): highest cross-linking efficiency with Nck; also recorded: noticeable reactivity; time to reach 50% reaction efficiency [2]: 2 min; efficacy compared with Y474 in anti-infection assay ([3]; p1 vs Y474 at lower concentrations): significantly higher efficacy than Y474 at lower concentrations; blockage of EPEC invasion/infection of Caco-2 cells ([3]; with L17E-mediated delivery): rendered Caco-2 cells resistant to EPEC infection; also recorded: can block EPEC invasion to Caco-2 cells

From publication PMC10755736, “Modulating Liquid–Liquid Phase Separation of Nck Adaptor Protein against Enteropathogenic Escherichia coli Infection” (ACS Central Science, 2023)
